{"source": "patent US20020172713A1", "about": "“Micron sized bicarbonate particles and slurrys containing the same” (Church & Dwight, Co., Inc., priority 2001, published 2002)", "origin": "cited, not measured here", "details": "prior art particles, dilution of about 70% by weight slurry with additional water", "note": "Like-named read-outs stand apart in the source and are kept apart here."}
{"smiles": "O=C([O-])O.[Na+]", "note": "[sodium bicarbonate]", "values": [{"measurement": "alkali metal bicarbonate particles dissolved in dilution", "setting": "10° C.", "result": 7, "unit": "%"}, {"measurement": "alkali metal bicarbonate particles dissolved in dilution", "setting": "22° C.", "result": 8.5, "unit": "%"}]}
